Here are results for two molecules from PMC8213057, “Targeting ALK2: An Open Science Approach to Developing Therapeutics for the Treatment of Diffuse Intrinsic Pontine Glioma” (Journal of Medicinal Chemistry, 2020).

For one assay, the target named is T1, MEK5 (Homo sapiens, UniProt Q13163).
T1 sequence (Q13163 1-448): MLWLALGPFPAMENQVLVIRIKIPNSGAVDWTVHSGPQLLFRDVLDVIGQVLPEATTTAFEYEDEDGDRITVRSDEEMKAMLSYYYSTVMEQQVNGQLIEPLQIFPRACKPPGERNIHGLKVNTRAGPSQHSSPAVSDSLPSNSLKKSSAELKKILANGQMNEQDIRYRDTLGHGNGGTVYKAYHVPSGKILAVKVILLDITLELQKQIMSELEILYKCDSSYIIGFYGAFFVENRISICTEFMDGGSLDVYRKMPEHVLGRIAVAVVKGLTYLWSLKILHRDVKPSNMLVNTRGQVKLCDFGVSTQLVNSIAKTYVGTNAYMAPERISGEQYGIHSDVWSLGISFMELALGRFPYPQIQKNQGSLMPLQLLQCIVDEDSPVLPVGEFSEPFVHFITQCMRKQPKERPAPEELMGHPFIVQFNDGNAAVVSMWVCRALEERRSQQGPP
Nature of the assay: biochemical. The note with it: read-out: % enzyme activity, 1 μM; Run 1, Run 2.

The target in the next assay is ERBB4/HER4 (Homo sapiens, UniProt Q15303). The note with it: 1 μM; Run 1, Run 2.
The target in a further assay is T2, DMPK (Homo sapiens, UniProt Q09013).
T2 sequence (Q09013 1-629): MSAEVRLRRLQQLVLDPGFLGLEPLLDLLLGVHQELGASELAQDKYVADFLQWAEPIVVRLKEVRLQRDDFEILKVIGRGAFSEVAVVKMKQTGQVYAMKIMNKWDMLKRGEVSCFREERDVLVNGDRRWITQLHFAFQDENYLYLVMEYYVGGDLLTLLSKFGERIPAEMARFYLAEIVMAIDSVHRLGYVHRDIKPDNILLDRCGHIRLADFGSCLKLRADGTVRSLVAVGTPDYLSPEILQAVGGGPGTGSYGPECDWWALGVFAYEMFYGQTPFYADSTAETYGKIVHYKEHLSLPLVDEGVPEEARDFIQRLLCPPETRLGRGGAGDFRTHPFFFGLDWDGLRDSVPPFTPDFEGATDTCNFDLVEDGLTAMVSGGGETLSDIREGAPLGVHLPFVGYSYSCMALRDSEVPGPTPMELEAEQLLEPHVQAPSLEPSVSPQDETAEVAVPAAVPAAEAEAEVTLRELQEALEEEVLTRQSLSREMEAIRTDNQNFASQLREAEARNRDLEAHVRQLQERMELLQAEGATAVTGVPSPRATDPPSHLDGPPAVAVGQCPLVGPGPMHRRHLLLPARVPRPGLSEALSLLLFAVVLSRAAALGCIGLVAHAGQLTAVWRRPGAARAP
Nature of the assay: biochemical. The note with it: read-out: % enzyme activity, 1 μM; Run 1, Run 2.

Another assay addresses T3, GRK7 (Homo sapiens, UniProt Q8WTQ7).
T3 sequence (Q8WTQ7 1-553): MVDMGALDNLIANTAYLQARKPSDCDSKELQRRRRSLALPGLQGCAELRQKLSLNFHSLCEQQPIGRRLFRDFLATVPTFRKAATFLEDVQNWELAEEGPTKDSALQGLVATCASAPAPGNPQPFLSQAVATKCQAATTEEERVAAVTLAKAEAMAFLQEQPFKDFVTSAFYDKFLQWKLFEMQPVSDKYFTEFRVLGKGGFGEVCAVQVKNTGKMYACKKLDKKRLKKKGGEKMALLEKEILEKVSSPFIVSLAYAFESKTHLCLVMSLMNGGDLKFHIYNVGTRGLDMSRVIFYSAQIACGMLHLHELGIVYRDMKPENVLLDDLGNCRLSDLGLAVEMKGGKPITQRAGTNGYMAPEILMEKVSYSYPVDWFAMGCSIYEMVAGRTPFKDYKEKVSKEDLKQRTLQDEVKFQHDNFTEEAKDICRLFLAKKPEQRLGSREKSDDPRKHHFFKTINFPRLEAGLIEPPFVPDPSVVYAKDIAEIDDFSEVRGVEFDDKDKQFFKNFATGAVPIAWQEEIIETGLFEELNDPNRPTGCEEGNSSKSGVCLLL
The note with it: 1 μM; Run 1, Run 2.

The target in another assay is TRKC (Homo sapiens, UniProt Q16288). The note with it: 1 μM; Run 1, Run 2.
Another assay addresses GRK5 (Homo sapiens, UniProt P34947). Nature of the assay: biochemical. The note with it: read-out: % enzyme activity, 1 μM; Run 1, Run 2.
Another assay addresses T4, KHS/MAP4K5 (Homo sapiens, UniProt Q9Y4K4).
T4 construct: purchased Reaction Biology Corporation
The experiment in a line: 375-member kinase panel. It is filed as biochemical. The note with it: Run 1, Run 2; for % enzyme activity: 1 μM; for remaining activity at 1 µM: read-out: % enzyme activity, 1 μM.

For the next assay, the target named is CDK14/cyclin Y (PFTK1) (Homo sapiens, UniProt O94921). The note with it: 1 μM; Run 1, Run 2.
Another assay addresses RSK3 (Homo sapiens, UniProt Q15349). The note with it: 1 μM; Run 1, Run 2.
In a further assay the target is P38a/MAPK14 (Homo sapiens, UniProt Q16539). Nature of the assay: biochemical. The note with it: read-out: % enzyme activity, 1 μM; Run 1, Run 2.
The next assay has as its target T5, P38g (Homo sapiens, UniProt P53778).
T5 sequence (P53778 1-367): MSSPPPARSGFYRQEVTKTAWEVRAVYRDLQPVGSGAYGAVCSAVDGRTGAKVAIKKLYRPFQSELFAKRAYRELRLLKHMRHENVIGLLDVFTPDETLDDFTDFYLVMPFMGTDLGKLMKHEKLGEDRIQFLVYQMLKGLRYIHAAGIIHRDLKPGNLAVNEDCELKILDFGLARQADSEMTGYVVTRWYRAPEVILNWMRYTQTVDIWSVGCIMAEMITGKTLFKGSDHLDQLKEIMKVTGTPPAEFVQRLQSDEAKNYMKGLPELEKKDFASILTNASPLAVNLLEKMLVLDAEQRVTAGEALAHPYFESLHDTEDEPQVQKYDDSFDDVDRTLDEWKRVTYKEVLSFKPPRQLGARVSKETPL
Nature of the assay: biochemical. The note with it: read-out: % enzyme activity, 1 μM; Run 1, Run 2.

T4 sequence (Q9Y4K4 whole entry): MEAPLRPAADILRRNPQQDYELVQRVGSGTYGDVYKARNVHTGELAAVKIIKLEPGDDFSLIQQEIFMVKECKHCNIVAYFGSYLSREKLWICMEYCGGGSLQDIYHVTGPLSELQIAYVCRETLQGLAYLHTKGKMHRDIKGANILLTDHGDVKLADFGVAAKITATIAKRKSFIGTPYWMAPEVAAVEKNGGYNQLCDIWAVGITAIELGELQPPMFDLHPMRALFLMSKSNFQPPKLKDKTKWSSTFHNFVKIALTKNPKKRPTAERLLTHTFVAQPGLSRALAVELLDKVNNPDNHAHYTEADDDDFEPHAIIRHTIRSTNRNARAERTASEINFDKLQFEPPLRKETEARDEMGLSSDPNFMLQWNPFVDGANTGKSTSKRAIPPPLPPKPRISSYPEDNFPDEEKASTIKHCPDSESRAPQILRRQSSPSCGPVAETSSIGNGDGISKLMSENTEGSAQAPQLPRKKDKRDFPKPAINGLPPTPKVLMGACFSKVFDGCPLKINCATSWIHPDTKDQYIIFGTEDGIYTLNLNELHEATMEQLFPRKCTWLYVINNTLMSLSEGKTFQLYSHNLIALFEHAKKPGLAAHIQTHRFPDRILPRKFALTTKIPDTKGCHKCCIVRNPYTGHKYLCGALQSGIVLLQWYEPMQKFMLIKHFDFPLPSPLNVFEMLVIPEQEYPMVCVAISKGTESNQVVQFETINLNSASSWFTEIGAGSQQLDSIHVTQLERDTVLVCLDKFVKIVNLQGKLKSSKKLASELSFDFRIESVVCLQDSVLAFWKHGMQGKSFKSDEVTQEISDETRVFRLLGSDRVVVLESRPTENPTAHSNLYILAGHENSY
CDK14/cyclin Y (PFTK1), sequence (O94921 whole entry): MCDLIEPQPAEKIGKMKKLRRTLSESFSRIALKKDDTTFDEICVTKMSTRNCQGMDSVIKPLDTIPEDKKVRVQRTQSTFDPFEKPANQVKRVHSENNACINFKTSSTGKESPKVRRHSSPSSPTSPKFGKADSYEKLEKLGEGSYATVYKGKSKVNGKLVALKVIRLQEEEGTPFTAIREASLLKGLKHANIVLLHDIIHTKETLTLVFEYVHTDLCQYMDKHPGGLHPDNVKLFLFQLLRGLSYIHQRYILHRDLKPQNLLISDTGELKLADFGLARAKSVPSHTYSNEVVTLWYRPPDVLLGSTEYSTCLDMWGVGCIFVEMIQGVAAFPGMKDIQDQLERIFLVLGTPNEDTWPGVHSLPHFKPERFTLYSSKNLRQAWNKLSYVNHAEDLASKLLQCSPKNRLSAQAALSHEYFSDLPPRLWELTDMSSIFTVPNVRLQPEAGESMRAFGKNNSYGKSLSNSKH
CDK14/cyclin Y (PFTK1), sequence (Q8ND76 whole entry partner): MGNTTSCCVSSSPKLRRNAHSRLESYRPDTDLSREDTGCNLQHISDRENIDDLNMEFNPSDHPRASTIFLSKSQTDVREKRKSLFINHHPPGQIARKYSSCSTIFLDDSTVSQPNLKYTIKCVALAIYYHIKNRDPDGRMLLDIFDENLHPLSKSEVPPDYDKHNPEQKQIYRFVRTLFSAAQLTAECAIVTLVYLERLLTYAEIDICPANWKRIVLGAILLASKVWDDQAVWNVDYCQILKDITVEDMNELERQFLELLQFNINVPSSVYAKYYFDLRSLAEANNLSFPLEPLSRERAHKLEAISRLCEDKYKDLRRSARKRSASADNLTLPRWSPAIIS
ERBB4/HER4, sequence (Q15303 26-1308): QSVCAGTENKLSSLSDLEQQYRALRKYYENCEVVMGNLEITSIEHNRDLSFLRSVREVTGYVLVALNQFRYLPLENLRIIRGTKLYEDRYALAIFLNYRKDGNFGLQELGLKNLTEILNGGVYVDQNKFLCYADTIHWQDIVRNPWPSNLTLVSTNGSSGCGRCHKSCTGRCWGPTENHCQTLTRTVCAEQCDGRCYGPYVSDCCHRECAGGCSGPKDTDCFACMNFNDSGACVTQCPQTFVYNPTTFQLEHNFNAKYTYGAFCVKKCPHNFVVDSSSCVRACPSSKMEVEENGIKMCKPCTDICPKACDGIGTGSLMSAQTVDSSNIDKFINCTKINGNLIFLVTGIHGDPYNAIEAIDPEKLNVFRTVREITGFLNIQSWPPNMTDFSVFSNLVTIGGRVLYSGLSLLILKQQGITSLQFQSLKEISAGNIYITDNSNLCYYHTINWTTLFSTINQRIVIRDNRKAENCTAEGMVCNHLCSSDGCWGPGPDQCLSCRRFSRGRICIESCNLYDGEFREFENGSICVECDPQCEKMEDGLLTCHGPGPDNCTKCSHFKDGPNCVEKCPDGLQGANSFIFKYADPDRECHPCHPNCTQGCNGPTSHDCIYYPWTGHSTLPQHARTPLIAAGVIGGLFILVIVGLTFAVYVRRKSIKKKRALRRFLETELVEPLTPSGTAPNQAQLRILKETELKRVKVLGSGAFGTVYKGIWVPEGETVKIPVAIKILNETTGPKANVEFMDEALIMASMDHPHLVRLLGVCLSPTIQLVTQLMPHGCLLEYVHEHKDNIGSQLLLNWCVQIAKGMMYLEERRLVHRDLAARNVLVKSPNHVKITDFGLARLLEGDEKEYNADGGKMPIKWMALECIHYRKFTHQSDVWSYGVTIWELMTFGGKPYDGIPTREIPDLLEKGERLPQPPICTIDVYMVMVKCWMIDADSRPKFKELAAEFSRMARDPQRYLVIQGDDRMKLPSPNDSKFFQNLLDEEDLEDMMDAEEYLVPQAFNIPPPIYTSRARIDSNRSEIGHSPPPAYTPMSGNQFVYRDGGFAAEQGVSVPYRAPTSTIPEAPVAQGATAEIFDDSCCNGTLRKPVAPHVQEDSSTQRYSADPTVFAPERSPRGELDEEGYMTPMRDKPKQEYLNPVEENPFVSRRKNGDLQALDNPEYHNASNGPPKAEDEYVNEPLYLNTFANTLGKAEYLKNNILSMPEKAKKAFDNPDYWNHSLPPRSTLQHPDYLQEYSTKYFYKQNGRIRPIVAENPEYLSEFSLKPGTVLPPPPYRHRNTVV
GRK5, sequence (P34947 whole entry): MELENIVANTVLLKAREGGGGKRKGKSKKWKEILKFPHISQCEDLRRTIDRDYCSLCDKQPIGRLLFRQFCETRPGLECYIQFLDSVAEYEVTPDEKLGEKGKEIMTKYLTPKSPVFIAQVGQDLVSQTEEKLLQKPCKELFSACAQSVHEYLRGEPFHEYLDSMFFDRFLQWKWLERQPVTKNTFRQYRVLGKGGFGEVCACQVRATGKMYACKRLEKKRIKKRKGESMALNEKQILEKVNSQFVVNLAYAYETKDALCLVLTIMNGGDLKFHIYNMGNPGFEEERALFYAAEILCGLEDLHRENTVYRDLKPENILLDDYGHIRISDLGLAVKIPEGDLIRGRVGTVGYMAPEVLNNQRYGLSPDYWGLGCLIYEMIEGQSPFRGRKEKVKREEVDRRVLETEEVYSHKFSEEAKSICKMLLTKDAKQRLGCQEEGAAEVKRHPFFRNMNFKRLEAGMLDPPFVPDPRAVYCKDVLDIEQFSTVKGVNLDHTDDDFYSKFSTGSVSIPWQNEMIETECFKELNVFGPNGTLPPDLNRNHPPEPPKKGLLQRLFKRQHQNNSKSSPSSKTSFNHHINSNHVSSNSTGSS
TRKC, sequence (Q16288 32-839): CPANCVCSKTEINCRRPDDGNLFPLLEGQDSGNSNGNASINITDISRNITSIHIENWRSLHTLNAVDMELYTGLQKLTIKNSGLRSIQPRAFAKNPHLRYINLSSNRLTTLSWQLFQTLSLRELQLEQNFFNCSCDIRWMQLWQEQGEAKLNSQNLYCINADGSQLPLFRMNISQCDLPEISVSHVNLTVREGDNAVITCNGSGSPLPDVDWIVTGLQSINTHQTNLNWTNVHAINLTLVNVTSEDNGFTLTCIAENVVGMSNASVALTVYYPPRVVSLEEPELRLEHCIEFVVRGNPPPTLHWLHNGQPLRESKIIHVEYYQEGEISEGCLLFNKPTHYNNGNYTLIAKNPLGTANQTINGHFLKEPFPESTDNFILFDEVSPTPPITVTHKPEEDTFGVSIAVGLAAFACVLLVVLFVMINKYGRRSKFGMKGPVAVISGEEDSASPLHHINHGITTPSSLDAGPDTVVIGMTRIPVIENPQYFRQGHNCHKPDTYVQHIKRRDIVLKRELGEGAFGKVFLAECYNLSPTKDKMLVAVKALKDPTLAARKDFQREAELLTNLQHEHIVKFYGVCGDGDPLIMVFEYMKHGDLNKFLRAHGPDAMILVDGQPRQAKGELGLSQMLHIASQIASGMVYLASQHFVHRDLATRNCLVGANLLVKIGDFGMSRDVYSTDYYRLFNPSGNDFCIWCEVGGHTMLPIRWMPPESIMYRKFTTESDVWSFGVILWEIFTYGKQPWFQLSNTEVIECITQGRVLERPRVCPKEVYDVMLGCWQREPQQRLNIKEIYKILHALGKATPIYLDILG
RSK3, sequence (Q15349 whole entry): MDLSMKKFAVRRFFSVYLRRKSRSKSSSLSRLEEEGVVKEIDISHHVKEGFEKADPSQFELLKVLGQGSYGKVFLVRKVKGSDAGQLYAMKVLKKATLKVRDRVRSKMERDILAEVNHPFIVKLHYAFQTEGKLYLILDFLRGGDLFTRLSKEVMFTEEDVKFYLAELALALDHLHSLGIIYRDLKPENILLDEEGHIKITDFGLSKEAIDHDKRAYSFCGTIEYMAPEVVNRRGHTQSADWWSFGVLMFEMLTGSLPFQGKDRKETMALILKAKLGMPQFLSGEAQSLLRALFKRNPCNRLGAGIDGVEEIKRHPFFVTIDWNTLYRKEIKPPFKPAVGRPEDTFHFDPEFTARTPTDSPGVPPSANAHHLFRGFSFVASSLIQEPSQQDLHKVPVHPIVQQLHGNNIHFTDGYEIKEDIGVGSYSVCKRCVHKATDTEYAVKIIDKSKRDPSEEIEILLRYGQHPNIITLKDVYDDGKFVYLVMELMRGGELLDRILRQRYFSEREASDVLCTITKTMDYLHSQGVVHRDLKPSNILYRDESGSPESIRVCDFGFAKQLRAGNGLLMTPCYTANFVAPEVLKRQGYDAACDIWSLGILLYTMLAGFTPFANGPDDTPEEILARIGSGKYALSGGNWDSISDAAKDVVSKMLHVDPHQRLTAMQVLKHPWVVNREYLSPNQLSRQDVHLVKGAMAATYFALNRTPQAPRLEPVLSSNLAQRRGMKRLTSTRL

`COc1cc(-c2cncc(-c3ccc(N4C[C@@H](C)N(C)[C@@H](C)C4)cc3)c2C)cc(F)c1C(N)=O` [Compound 26c, 2-Fluoro-6-methoxy-4-(4-methyl-5-(4-((3R,5S)-3,4,5-trimethylpiperazin-1-yl)phenyl)pyridin-3-yl)benzamide]: the remaining activity at 1 µM on MEK5 came out at 93.2%; at DMPK, 105%; at GRK5, 93.1%; at KHS/MAP4K5 it was 41.7%; at P38a/MAPK14, 97%; on P38g, 108%. In addition, the “% enzyme activity” value on ERBB4/HER4 was determined as 93.88%; at GRK7, 91.35%; on TRKC, 97.50%; at KHS/MAP4K5, 40.60%; at CDK14/cyclin Y (PFTK1), 99.61%; at RSK3, 99.74%.
For `COc1cc(-c2cncc(-c3ccc(N4CCN(C)CC4)cc3)c2C)cc(F)c1C(N)=O` [Compound 26a, 2-Fluoro-6-methoxy-4-(4-methyl-5-(4-(4-methylpiperazin-1-yl)phenyl)pyridin-3-yl)benzamide], the remaining activity at 1 µM at MEK5 was found to be 86.9%; at DMPK, 109%; on GRK5, 104%; at KHS/MAP4K5, 39.7%; on P38a/MAPK14 it was 92.7%; on P38g, 110%. The “% enzyme activity” value on ERBB4/HER4 was 99.40%; at GRK7, 93.81%; on TRKC, 101.44%; at KHS/MAP4K5, 39.28%; on CDK14/cyclin Y (PFTK1), 98.24%; at RSK3 it was 87.93%.
